The values below come from article PMC3237634 (Bioorganic & medicinal chemistry letters, 2011).

Read-outs that look alike come from different tables or passages of the source.

The target in experiment [1] is T1, hPEPT1 (Homo sapiens, UniProt P46059).
T1 sequence (P46059 1-708): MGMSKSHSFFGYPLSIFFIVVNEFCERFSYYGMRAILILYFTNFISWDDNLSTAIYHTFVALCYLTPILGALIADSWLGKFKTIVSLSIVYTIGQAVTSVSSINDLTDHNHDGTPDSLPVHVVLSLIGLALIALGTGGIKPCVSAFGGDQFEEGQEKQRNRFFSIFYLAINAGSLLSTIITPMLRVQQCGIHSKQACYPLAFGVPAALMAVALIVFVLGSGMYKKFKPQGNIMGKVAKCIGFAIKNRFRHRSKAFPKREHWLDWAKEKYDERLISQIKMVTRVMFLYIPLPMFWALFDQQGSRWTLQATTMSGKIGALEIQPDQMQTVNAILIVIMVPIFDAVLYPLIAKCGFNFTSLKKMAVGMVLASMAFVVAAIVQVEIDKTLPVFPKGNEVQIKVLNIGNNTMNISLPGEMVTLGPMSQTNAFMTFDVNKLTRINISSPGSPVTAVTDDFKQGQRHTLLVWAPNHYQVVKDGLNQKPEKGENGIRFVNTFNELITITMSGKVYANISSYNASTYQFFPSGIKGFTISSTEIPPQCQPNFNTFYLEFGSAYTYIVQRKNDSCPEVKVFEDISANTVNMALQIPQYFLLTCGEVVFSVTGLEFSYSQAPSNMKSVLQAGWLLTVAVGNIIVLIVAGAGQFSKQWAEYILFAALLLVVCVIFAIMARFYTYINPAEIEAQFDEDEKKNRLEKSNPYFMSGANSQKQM
It counts as cell-based. To be noted: for affinity for hPEPT1 compared to the lead promoiety H-Phe-Ser-Ala-OH: statistical comparison, N = 3.

Experiment [2] addresses T1, hPEPT1. The following applies: investigation of 55 tripeptides; cited from earlier work.
Experiment [3] has as its target T1, hPEPT1. The following applies: value obtained by refitting data presented in Thorn et al.; cited from earlier work.

On to `C[C@H](NC(=O)[C@H](COC(=O)c1ccccc1)CC(=O)[C@@H](N)Cc1ccccc1)C(=O)O.O=C(O)C(F)(F)F` [Compound 14A, H-Phe-ψ[COCH2]Ser(Bz)-Ala-OH], for which the “affinity for hPEPT1 compared to the lead promoiety H-Phe-Ser-Ala-OH” value in experiment [1] is recorded as “did not have significantly different affinities”. Still for that read-out and setting: under `CCC[C@H](NC(=O)[C@H](COC(=O)c1ccccc1)CC(=O)[C@@H](N)Cc1ccccc1)C(=O)O.O=C(O)C(F)(F)F` [Compound 14B, H-Phe-ψ[COCH2]Ser(Bz)-Nva-OH] stands “did not have significantly different affinities”. Regarding `N[C@@H](Cc1ccccc1)C(=O)C[C@@H](COC(=O)c1ccccc1)C(=O)N[C@H](C(=O)O)C1CCCCC1.O=C(O)C(F)(F)F` [Compound 14C, H-Phe-ψ[COCH2]Ser(Bz)-Chg-OH], in experiment [1], the affinity, expressed as Ki, was 50 µM and the “affinity for hPEPT1 compared to the lead promoiety H-Phe-Ser-Ala-OH” value is recorded as “significantly higher affinity”. For Asp-Ile-Arg, the “interaction with hPEPT1 in translocation study” value in experiment [2] was “not recognized by hPEPT1”. Regarding H-Phe-Ser-Ala-OH, in experiment [3], the Ki is 260 µM.

On to Met-Pro-Pro, for which the “interaction with hPEPT1 in translocation study” value in experiment [2] is listed as “inhibitor”.

Broadly, the Ki is a dissociation constant, usually derived from enzyme kinetics or from competition with a known ligand.
